What was measured:
IMR-90 cells [1] = assay: Basal profibrotic gene expression by Q-RT-PCR in IMR-90 cells; format: cell-based, human; conditions: F12K 1% FBS, 72 hours, FIG. 7
Procedure: IMR-90 cells were treated in F12K medium containing 1% FBS and Oxy210 at the indicated concentrations for 72 hours. RNA was then extracted and analyzed by Q-RT-PCR for the expression of the genes as indicated and normalized to GAPDH expression.

LL97A cells [2] = assay: TGFβ-induced COL1A1 and a-SMA expression by Q-RT-PCR in LL97A cells; format: cell-based, human; conditions: 48 hours, FIG. 8
Procedure: LL97A cells were pretreated in F12K medium containing 1% FBS for 24 hours and then the cells were treated with TGFβ in the absence or presence of Oxy210 at the indicated concentrations. After 48 hours, RNA was extracted and analyzed by Q-RT-PCR for the expression of the genes as indicated and normalized to GAPDH expression.

LL97A cells [3] = assay: Basal COL1A1 expression by Q-RT-PCR in LL97A cells; format: cell-based, human; conditions: F12K 1% FBS, 72 hours, FIG. 9, p<0.01 vs control
Procedure: LL97A cells were treated in F12K medium containing 1% FBS and Oxy210 at the indicated concentrations for 72 hours. RNA was then extracted and analyzed by Q-RT-PCR for the expression of the genes as indicated and normalized to GAPDH expression.

[4] = test system: Primary human renal proximal tubular epithelial cells; assay: TGFβ-induced epithelial mesenchymal transition (EMT) of renal tubular epithelial cells, Q-RT-PCR of EMT markers and Gli1; format: cell-based; conditions: TGFβ 10 ng/mL, 48 hours, FIG. 4, p<0.01 vs. TGFβ
Procedure: Primary human renal proximal tubular epithelial cells cultured in RPMI containing 1% FBS were treated with TGFβ (10 ng/mL) in the absence or presence of Oxy210 for 48 hours. RNA was extracted and analyzed by Q-RT-PCR for the expression of the EMT markers and Gli1 and normalized to GAPDH expression.

IMR-90 cells [5] = assay: IMR-90 lung fibroblast cell proliferation (cell count); format: cell-based; conditions: IMR-90 normal human lung fibroblast cells, DMEM 1% FBS, 5 days; FIG. 5, p<0.01 vs. control
Procedure: IMR-90 cells were treated with Oxy210 at the concentrations as indicated in DMEM containing 1% FBS for 5 days and then were trypsinized and counted.

LL97A cells [6] = assay: LL97A lung fibroblast cell proliferation (cell count); format: cell-based; conditions: LL97A human lung fibroblast cells from a subject with idiopathic pulmonary fibrosis, F12K 1% FBS, 5 days; FIG. 6
Procedure: LL97A cells were treated with Oxy210 at the concentrations as indicated in F12K containing 1% FBS for 5 days and then were trypsinized and counted.

C57BL/6 mice = assay: Bleomycin-induced pulmonary fibrosis in mice, H&E staining of lung sections; format: in vivo; conditions: bleomycin once intratracheally, FIG. 10
Procedure: C57BL/6 mice were treated once intratracheally with bleomycin with or without pirfenidone or Oxy210.

TGFβ target genes = assay: Basal expression of TGFβ target genes by Q-RT-PCR in primary human liver stellate cells; format: cell-based; conditions: DMEM 1% FBS, 48 hours, normalized to GAPDH, FIG. 1, p<0.01 vs. control
Procedure: Primary human liver stellate cells were treated in DMEM containing 1% fetal bovine serum (FBS) for 24 hours. Next, they were treated with control vehicle or Oxy210. After 48 hours, RNA was extracted and analyzed by Q-RT-PCR for the expression of the genes as indicated and normalized to GAPDH expression.

profibrogenic genes = assay: Basal expression of profibrogenic genes by Q-RT-PCR in primary human pericytes; format: cell-based; conditions: DMEM 5% FBS, 72 hours, normalized to GAPDH, FIG. 2, p<0.01 vs. control
Procedure: Primary human pericytes were treated with control vehicle or Oxy210 for 72 hours in DMEM containing 5% FBS. RNA was extracted and analyzed by Q-RT-PCR for the expression of profibrotic genes and normalized to GAPDH expression.

In the case of `C[C@]12CC[C@H]3[C@@H](CC=C4C[C@@H](O)CC[C@@]43C)[C@@H]1CC[C@@H]2[C@](C)(O)CCc1cccnc1` [Oxy210], the “basal profibrotic gene expression” value (IMR-90 cells [1]) is reported as “inhibits basal profibrotic gene expression”, the “TGFβ-induced COL1A1 expression” value (LL97A cells [2]) is reported as “inhibits” and the “TGFβ-induced a-SMA expression” value (LL97A cells [2]) is reported as “inhibits”. The “basal COL1A1 expression” value (LL97A cells [3]) was “inhibits basal COL1A1 expression”, the “TGFβ-induced epithelial mesenchymal transition (EMT)” value [4] was “inhibition of TGFβ-induced epithelial mesenchymal transition (EMT)” and the cell proliferation (IMR-90 cells [5]) was “inhibition of IMR-90 normal human lung fibroblast cell proliferation”. For the same compound, the cell proliferation (LL97A cells [6]) was “inhibition of proliferation of LL97A human lung fibroblast cells”, the “bleomycin-induced damages to the lung architecture” value (C57BL/6 mice) was “clear beneficial effect” and the “basal expression of TGFβ target genes” value (TGFβ target genes) was “inhibition of basal expression of TGFβ target genes”. For the same compound, the “basal expression of profibrogenic genes” value (profibrogenic genes) was “inhibition of basal expression of profibrogenic genes”.

— patent US20230381201A1, “METHODS AND COMPOSITIONS FOR TREATING FIBROTIC DISEASES” (MAX BioPharma, Inc., priority 2020, published 2023)
